How the values were obtained:
Assay type in all cases: functional, cell-based
MOLM-13 [1] = assay: Antiproliferative activity against human MOLM-13 cells incubated for 48 hrs by CCK8 assay; details: MOLM-13, 48 h
MV4-11 = assay: Antiproliferative activity against human MV4-11 cells expressing FLT3-ITD mutant incubated for 48 hrs by CCK8 assay; details: MV4-11, 48 h
MOLM-13 [2] = assay: Antiproliferative activity against Quizartinib-resistant human MOLM-13 cells incubated for 48 hrs by CCK8 assay; details: MOLM-13, 48 h
MOLM-13 [3] = assay: Antiproliferative activity against Sunitinib-resistant human MOLM-13 cells incubated for 48 hrs by CCK8 assay; details: MOLM-13, 48 h

## Cc1c(NC(=O)CN2CCN(C(=O)CCCCCNc3cccc4c3C(=O)N(C3CCC(=O)NC3=O)C4=O)CC2)c[nH]c1/C=C1\C(=O)Nc2ccc(F)cc21 (centres undefined)
MOLM-13 [1]
  IC50: 0.208 µM
MV4-11
  IC50: 0.169 µM

## Cc1c(NC(=O)CN2CCN(C3CCN(c4ccc5c(c4)C(=O)N(C4CCC(=O)NC4=O)C5=O)CC3)CC2)c[nH]c1/C=C1\C(=O)Nc2ccc(F)cc21 (centres undefined)
MOLM-13 [1]
  IC50: 0.335 µM
MV4-11
  IC50: 0.106 µM

## Cc1c(NC(=O)CN2CCN(CC3CN(c4ccc5c(c4)C(=O)N(C4CCC(=O)NC4=O)C5=O)C3)CC2)c[nH]c1/C=C1\C(=O)Nc2ccc(F)cc21 (centres undefined)
MOLM-13 [1]
  IC50: 0.333 µM
MV4-11
  IC50: 0.126 µM

## Cc1c(NC(=O)CN2CCN(C(=O)CCCCCCCCCCCNc3cccc4c3C(=O)N(C3CCC(=O)NC3=O)C4=O)CC2)c[nH]c1/C=C1\C(=O)Nc2ccc(F)cc21 (centres undefined)
MOLM-13 [1]
  IC50: > 1 µM
MV4-11
  IC50: 0.372 µM

## Cc1c(NC(=O)CN2CCN(C(=O)CCOCCNC(=O)COc3cccc4c3C(=O)N(C3CCC(=O)NC3=O)C4=O)CC2)c[nH]c1/C=C1\C(=O)Nc2ccc(F)cc21 (centres undefined)
MOLM-13 [1]
  IC50: > 1 µM
MV4-11
  IC50: 0.812 µM

## Cc1ncsc1-c1ccc(CNC(=O)[C@H]2C[C@H](O)CN2C(=O)[C@@H](NC(=O)CCCCCCC(=O)N2CCN(CC(=O)Nc3c[nH]c(/C=C4\C(=O)Nc5ccc(F)cc54)c3C)CC2)C(C)(C)C)cc1
MOLM-13 [1]
  IC50: 0.399 µM
MV4-11
  IC50: 0.262 µM

## Cc1c(NC(=O)CN2CCN(C(=O)CCOCCOCCOCCNc3cccc4c3C(=O)N(C3CCC(=O)NC3=O)C4=O)CC2)c[nH]c1/C=C1\C(=O)Nc2ccc(F)cc21 (centres undefined)
MOLM-13 [1]
  IC50: 0.445 µM
MV4-11
  IC50: 0.396 µM

## Cc1c(NC(=O)CN2CCN(C(=O)CCCCCCCC(=O)NCCNc3cccc4c3C(=O)N(C3CCC(=O)NC3=O)C4=O)CC2)c[nH]c1/C=C1\C(=O)Nc2ccc(F)cc21 (centres undefined)
MOLM-13 [1]
  IC50: 0.358 µM
MV4-11
  IC50: 0.17 µM

## Cc1c(NC(=O)CN2CCN(C(=O)CCCC(=O)NCCNc3cccc4c3C(=O)N(C3CCC(=O)NC3=O)C4=O)CC2)c[nH]c1/C=C1\C(=O)Nc2ccc(F)cc21 (centres undefined)
MOLM-13 [1]
  IC50: > 1 µM
MV4-11
  IC50: 0.23 µM

## Cc1ncsc1-c1ccc(CNC(=O)[C@@H]2C[C@@H](O)CN2C(=O)[C@@H](NC(=O)CCCCC(=O)N2CCN(CC(=O)Nc3c[nH]c(/C=C4\C(=O)Nc5ccc(F)cc54)c3C)CC2)C(C)(C)C)cc1
MOLM-13 [1]
  IC50: > 1 µM
MV4-11
  IC50: 0.36 µM

## Cc1c(NC(=O)CN2CCN(C(=O)CCCCC(=O)NCCNc3cccc4c3C(=O)N(C3CCC(=O)NC3=O)C4=O)CC2)c[nH]c1/C=C1\C(=O)Nc2ccc(F)cc21 (centres undefined)
MOLM-13 [1]
  IC50: 0.657 µM
MV4-11
  IC50: 0.201 µM

## Cc1c(NC(=O)CN2CCN(C(=O)CCCCCCC(=O)NCCNc3cccc4c3C(=O)N(C3CCC(=O)NC3=O)C4=O)CC2)c[nH]c1/C=C1\C(=O)Nc2ccc(F)cc21 (centres undefined)
MOLM-13 [1]
  IC50: 0.533 µM
MV4-11
  IC50: 0.288 µM

## CCc1nc(C(N)=O)c(Nc2ccc(N3CCC(N4CCN(C)CC4)CC3)c(OC)c2)nc1NC1CCOCC1 [GILTERITINIB]
MOLM-13 [2]
  IC50: 2.32 µM
MOLM-13 [3]
  IC50: 10.9 µM
MOLM-13 [1]
  IC50: 0.0675 µM
MV4-11
  IC50: 0.0402 µM

## CCN(CC)CCNC(=O)c1c(C)[nH]c(/C=C2\C(=O)Nc3ccc(F)cc32)c1C [SUNITINIB]
MOLM-13 [2]
  IC50: > 1 µM
MOLM-13 [3]
  IC50: 1.46 µM

## Cc1c(NC(=O)CN2CCN(C3CC4(CCN(c5ccc6c(c5)C(=O)N(C5CCC(=O)NC5=O)C6=O)CC4)C3)CC2)c[nH]c1/C=C1\C(=O)Nc2ccc(F)cc21 (centres undefined)
MOLM-13 [1]
  IC50: 0.249 µM
MV4-11
  IC50: 0.0517 µM

## Cc1c(NC(=O)CN2CCN(CCCCCCCCCOc3cccc4c3C(=O)N(C3CCC(=O)NC3=O)C4=O)CC2)c[nH]c1/C=C1\C(=O)Nc2ccc(F)cc21 (centres undefined)
MOLM-13 [1]
  IC50: 0.277 µM
MV4-11
  IC50: 0.13 µM
